Results taken from PubChem BioAssay (NCI).
“And” between values parts separate entries of the source, which are not always exact repeats. Equal entries are not always repeated.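 Growth conditions: 96-well plates. Treatment: test compound, 48 hours, 5 concentrations. Analysis: linear interpolation between bracketing concentrations; unreached endpoints set to highest concentration. Abbreviation: GI50, concentration required for 50% inhibition of growth. TGI marks complete inhibition of growth.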

Columns and labels:
Test in all cases: inhibition of tumour cell growth, NCI panel, 48 h; in the data active = GI50 below about 0.43 µM; inactive = the rest
[1] = system: NCI-H23 lung
[2] = system: NCI/ADR-RES ovarian
[3] = system: MDA-MB-231 breast
[4] = system: T-47D breast
[5] = system: HOP-62 NSCLC
[6] = system: CCRF-CEM leukemia
[7] = system: MALME-3M melanoma
[8] = system: DU-145 prostate
[9] = system: HCC-2998 colon
[10] = system: TK-10 renal
[11] = system: SF-295 CNS
[12] = system: SK-MEL-5 melanoma
[13] = system: SNB-75 CNS
[14] = system: SN12C renal
[15] = system: NCI-H460 lung
[16] = system: IGROV1 ovarian
[17] = system: KM12 colon
[18] = system: COLO 205 colon
[19] = system: UO-31 renal
[20] = system: HL-60(TB) leukemia
[21] = system: 786-0 renal
[22] = system: NCI-H522 lung
[23] = system: MDA-MB-435
[24] = system: EKVX NSCLC
[25] = system: NCI-H226 lung
[26] = system: HCT-15 colon
[27] = system: HT29 colon
[28] = system: OVCAR-4 ovarian
[29] = system: A498 renal
[30] = system: K-562 leukemia
[31] = system: CAKI-1 renal
[32] = system: SR leukemia
[33] = system: SK-MEL-28 melanoma
[34] = system: SF-268 CNS
[35] = system: LOX IMVI melanoma
[36] = system: MOLT-4 leukemia
[37] = system: HS 578T breast
[38] = system: SF-539 CNS
[39] = system: PC-3 prostate
[40] = system: RPMI-8226 leukemia
[41] = system: UACC-257 melanoma
[42] = system: MCF7 breast
[43] = system: RXF 393 renal
[44] = system: OVCAR-3 ovarian
[45] = system: SK-MEL-2 melanoma
[46] = system: ACHN renal
[47] = system: OVCAR-5 ovarian
[48] = system: SW-620 colon
[49] = system: M14 melanoma
[50] = system: SK-OV-3 ovarian
[51] = system: MDA-N
[52] = system: OVCAR-8 ovarian
[53] = system: U251 CNS
[54] = system: SNB-19 CNS
[55] = system: UACC-62 melanoma
[56] = system: HCT-116 colon
[57] = system: A549 NSCLC

COc1ccccc1N/C(=C\C(=O)C(=O)NC12CC3CC(CC(C3)C1)C2)c1ccccc1
> 10000 nM: TGI [2] | TGI [8] | TGI [17] | TGI [18] | TGI [20] | TGI [22] | TGI [23] | TGI [30] | TGI [32] | TGI [36] | TGI [38] | TGI [51]
> 10 µM: TGI [1] | TGI [3] | TGI [4] | TGI [5] | TGI [6] | TGI [7] | TGI [9] | TGI [10] | TGI [11] | TGI [12] | TGI [13] | TGI [14] | TGI [15] | TGI [16] | TGI [19] | TGI [21] | TGI [24] | TGI [25] | TGI [26] | TGI [27] | TGI [28] | TGI [29] | TGI [31] | TGI [33] | TGI [34] | TGI [35] | TGI [37] | TGI [39] | TGI [40] | TGI [41] | TGI [42] | TGI [43] | TGI [44] | TGI [45] | TGI [46] | TGI [47] | TGI [48] | TGI [49] | TGI [50] | TGI [52] | TGI [53]

COc1cccc(-c2cc(=O)c3cc(N(C)C)ccc3[nH]2)c1
65 µM and 34.2 µM: TGI [10]
active: GI50 [2] 14.4 nM and 5.33 nM | GI50 [3] 10.7 nM | GI50 [6] 13.5 nM and 5.24 nM | GI50 [7] 9.87 nM and 4.03 nM | GI50 [8] 34 nM and 7.3 nM | GI50 [9] 47.2 nM and 22.9 nM | GI50 [11] 16.9 nM and 29.6 nM and 4.85 nM | GI50 [12] 12.5 nM and 3.56 nM | GI50 [13] 27.1 nM and 8.69 nM | GI50 [15] 34.2 nM and 16.9 nM | GI50 [16] 89.2 nM and 42.3 nM and 17.4 nM | GI50 [17] 33.4 nM and 15.9 nM | GI50 [18] 28.3 nM and 12.5 nM | GI50 [19] 64.2 nM and 12.6 nM and 13.2 nM | GI50 [20] 11.1 nM and 2.64 nM | GI50 [21] 36.8 nM and 9.6 nM | GI50 [22] 18.4 nM and 3.92 nM | GI50 [55] 16.3 nM and 3.63 nM | GI50 [56] 15.5 nM and 4.33 nM | GI50 [30] 9.37 nM and 4.04 nM | GI50 [32] 4.95 nM and 2.24 nM | GI50 [33] 20.9 nM and 5.82 nM | GI50 [35] 35.4 nM and 12 nM | GI50 [36] 43.5 nM and 6.42 nM | GI50 [37] 22.1 nM and 4.61 nM | GI50 [38] 10.6 nM and 3.32 nM | GI50 [39] 27.5 nM and 8.06 nM | GI50 [44] 15.3 nM and 2.66 nM | GI50 [45] 35.9 nM and 7.35 nM | GI50 [46] 89.2 nM and 11 nM | GI50 [48] 17.3 nM and 3.82 nM | GI50 [49] 23.4 nM and 6.82 nM | GI50 [50] 25 nM and 3.59 nM | GI50 [51] 1.54 nM | GI50 [53] 18.2 nM and 5.94 nM
1060 nM and 119 nM and 766 nM: TGI [17]
62.1 nM and 8.53 nM: TGI [20]
88.7 nM: TGI [30]
40.1 nM and 25.9 nM: TGI [36]
302 nM and 369 nM and 800 nM: TGI [8]
7.74 nM and 5.29 nM: TGI [51]
> 100 µM: TGI [5] | TGI [7] | TGI [13] | TGI [14] | TGI [16] | TGI [55] | TGI [28] | TGI [33] | TGI [39] | TGI [57] | TGI [41] | TGI [47] | TGI [48] | TGI [49]
94.6 nM [middle of 4 runs]: TGI [52]
> 100 µM and 36.7 µM: TGI [21]
> 100 µM and 78.1 µM: TGI [19]
188 nM and 23.3 nM: TGI [32]
87.5 nM and 31.7 nM: TGI [18]
825 nM and 843 nM: TGI [54]
10.3 nM and 3.61 nM: TGI [23]
35.1 nM and 22 nM and 12.8 nM: TGI [38]
44.5 nM and 20.5 nM: TGI [22]
> 100 µM and 51.9 µM: TGI [46]
31.8 nM and 21 nM and 22.2 nM: TGI [2]

Cc1cc(N(CCC#N)CCC#N)ccc1/C=N/NC(=O)c1cc(Cl)ccc1O
> 100 µM: TGI [1] | TGI [3] | TGI [4] | TGI [5] | TGI [6] | TGI [7] | TGI [9] | TGI [10] | TGI [11] | TGI [12] | TGI [13] | TGI [14] | TGI [15] | TGI [16] | TGI [21] | TGI [55] | TGI [24] | TGI [25] | TGI [26] | TGI [27] | TGI [28] | TGI [29] | TGI [56] | TGI [31] | TGI [34] | TGI [37] | TGI [39] | TGI [57] | TGI [41] | TGI [42] | TGI [43] | TGI [44] | TGI [45] | TGI [47] | TGI [49] | TGI [50] | TGI [52] | TGI [53]
> 100000 nM: TGI [2] | TGI [8] | TGI [18] | TGI [20] | TGI [22] | TGI [23] | TGI [32] | TGI [36] | TGI [38] | TGI [51]
